Reference: patent US20250368666A1, “INDAZOLE COMPOUNDS” (TYRA BIOSCIENCES, INC., priority 2022, published 2025)

Key:
FGFR1 = molecular target: T1, FGFR1 (Homo sapiens, UniProt P11362); experiment: Kinase binding assay (kinase-tagged T7 phage, affinity beads, qPCR), Kd; conditions: read-out: FGFR1 (Kd nM)
T1 construct: made in house; host or cells: E. coli (BL21-derived), T7 phage
Method in brief: (§1)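 Competition binding; kinase-tagged T7 phage lysate vs immobilised biotinylated ligand on streptavidin beads, 0.9% DMSO final. 11-pt 3-fold dilutions, 3 DMSO controls. qPCR of eluted kinase; Kd by Hill fit, slope −1.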

FGFR2 = molecular target: T2, FGFR2 (Homo sapiens, UniProt P21802); experiment: as above; conditions: read-out: FGFR2 (Kd nM)
T2 construct: made in house; host or cells: E. coli (BL21-derived), T7 phage
T2 sequence (P21802 22-821): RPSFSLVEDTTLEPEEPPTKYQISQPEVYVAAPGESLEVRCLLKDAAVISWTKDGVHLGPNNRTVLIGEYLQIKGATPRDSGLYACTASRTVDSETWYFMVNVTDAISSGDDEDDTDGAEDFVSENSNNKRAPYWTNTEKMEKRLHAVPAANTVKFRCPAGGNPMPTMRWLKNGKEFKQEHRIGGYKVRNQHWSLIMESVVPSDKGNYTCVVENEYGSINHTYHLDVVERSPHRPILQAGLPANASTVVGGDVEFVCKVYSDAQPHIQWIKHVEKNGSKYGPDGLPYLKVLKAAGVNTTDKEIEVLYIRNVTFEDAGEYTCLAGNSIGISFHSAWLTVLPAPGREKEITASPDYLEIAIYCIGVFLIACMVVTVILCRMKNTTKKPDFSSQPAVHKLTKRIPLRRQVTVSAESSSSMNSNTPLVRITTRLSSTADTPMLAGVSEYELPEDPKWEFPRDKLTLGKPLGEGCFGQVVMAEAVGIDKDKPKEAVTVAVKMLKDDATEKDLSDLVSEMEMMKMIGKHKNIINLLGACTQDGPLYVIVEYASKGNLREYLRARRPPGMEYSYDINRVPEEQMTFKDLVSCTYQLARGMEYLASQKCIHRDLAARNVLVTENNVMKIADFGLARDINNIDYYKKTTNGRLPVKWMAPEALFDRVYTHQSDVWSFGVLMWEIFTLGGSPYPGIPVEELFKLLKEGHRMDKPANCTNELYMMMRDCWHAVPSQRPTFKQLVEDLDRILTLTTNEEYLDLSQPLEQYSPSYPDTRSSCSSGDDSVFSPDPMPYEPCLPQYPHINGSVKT
Method in brief: as §1

FGFR3 = molecular target: T3, FGFR3 (Homo sapiens, UniProt P22607); experiment: as above; conditions: read-out: FGFR3 (Kd nM)
T3 construct: made in house; host or cells: E. coli (BL21-derived), T7 phage
T3 sequence (P22607 23-806): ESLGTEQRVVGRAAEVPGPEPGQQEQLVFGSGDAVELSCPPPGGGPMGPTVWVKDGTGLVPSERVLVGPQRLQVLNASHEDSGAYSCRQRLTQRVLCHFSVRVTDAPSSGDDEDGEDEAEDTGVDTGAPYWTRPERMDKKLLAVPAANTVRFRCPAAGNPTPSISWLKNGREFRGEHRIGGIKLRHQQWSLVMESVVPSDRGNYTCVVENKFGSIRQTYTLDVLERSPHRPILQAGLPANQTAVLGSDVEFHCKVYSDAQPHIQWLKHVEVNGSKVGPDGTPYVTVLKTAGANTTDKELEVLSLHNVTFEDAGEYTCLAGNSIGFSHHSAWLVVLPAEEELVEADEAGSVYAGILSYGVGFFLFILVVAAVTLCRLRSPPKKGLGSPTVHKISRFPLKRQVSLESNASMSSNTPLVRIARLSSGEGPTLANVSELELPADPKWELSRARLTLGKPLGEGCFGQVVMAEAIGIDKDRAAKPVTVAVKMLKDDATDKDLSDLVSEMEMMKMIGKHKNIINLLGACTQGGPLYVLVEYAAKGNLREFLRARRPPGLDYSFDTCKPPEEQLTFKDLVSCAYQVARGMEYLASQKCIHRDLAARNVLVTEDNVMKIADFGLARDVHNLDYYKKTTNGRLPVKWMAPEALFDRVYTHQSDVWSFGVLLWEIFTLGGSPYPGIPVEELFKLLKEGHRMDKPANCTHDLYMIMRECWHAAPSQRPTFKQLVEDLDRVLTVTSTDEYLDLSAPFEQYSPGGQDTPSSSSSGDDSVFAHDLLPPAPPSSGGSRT
Method in brief: as §1

FGFR4 = molecular target: T4, FGFR4 (Homo sapiens, UniProt P22455); experiment: as above; conditions: read-out: FGFR4 (Kd nM)
T4 construct: made in house; host or cells: E. coli (BL21-derived), T7 phage
T4 sequence (P22455 22-802): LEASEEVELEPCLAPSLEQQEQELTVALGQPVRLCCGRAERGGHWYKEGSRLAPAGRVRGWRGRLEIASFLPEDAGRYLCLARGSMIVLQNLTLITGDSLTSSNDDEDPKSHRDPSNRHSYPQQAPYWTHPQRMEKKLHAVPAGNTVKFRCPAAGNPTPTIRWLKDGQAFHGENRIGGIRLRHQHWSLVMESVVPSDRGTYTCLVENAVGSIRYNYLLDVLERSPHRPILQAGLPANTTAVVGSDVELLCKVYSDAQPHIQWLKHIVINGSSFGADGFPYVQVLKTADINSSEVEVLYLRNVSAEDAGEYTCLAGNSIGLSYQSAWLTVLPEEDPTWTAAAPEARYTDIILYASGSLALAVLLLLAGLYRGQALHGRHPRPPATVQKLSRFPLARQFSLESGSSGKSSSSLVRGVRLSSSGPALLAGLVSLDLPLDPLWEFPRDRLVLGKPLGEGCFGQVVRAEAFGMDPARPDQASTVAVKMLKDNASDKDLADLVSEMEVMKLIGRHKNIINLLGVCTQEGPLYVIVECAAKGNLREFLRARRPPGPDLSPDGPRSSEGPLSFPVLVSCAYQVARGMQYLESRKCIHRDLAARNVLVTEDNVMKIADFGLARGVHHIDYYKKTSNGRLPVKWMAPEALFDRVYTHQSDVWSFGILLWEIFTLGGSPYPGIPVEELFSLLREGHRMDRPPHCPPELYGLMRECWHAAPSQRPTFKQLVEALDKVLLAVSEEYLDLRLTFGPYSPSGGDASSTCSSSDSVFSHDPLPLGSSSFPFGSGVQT
Method in brief: as §1

FGFR3 (V555M) = molecular target: T5, FGFR3 (V555M) (Homo sapiens, UniProt P22607, V555M); experiment: as above; conditions: V555M mutant; read-out: FGFR3 (V555M) (Kd nM)
T5 construct: made in house; host or cells: E. coli (BL21-derived), T7 phage
T5 sequence (P22607 23-806 V555M): as the sequence (P22607 23-806) above, with V533M counted along it
Method in brief: as §1

[1] = test system: KATO-III cell line (FGFR2 amplification); experiment: Cancer cell line cell viability assay (Cell Titer-Glo), 72 hr; type: cell-based; conditions: Homo sapiens, KATO III
Method in brief: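 Cells seeded at 5,000-20,000/well, incubated overnight, then treated with a 9-dose, 4-fold dilution series from 3 μM in triplicate at 37° C, 5% CO2. Viability read by Cell Titer-Glo 2.0 luminescence as percent of DMSO control; IC50 from 4-parameter variable-slope sigmoidal fit.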

[2] = test system: KG-1 cell line (FGFR 1-fusion); experiment: as above; type: cell-based; conditions: Homo sapiens, KG-1, KG-1 cell line (FGFR1-fusion)
Method in brief: (§2)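 5,000-20,000 cells/well o/n; cpd 9-pt 4x dil from 3 μM, n=3; 37° C/5% CO2; CTG 2.0 lumi; % DMSO ctrl; 4PL IC50.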

[3] = test system: RT112/84 cell line (FGFR3-fusion); experiment: as above; type: cell-based; conditions: Homo sapiens, RT112/84, RT112/84 cell line (FGFR3-fusion)
Method in brief: as §2

T1 sequence (P11362 22-822): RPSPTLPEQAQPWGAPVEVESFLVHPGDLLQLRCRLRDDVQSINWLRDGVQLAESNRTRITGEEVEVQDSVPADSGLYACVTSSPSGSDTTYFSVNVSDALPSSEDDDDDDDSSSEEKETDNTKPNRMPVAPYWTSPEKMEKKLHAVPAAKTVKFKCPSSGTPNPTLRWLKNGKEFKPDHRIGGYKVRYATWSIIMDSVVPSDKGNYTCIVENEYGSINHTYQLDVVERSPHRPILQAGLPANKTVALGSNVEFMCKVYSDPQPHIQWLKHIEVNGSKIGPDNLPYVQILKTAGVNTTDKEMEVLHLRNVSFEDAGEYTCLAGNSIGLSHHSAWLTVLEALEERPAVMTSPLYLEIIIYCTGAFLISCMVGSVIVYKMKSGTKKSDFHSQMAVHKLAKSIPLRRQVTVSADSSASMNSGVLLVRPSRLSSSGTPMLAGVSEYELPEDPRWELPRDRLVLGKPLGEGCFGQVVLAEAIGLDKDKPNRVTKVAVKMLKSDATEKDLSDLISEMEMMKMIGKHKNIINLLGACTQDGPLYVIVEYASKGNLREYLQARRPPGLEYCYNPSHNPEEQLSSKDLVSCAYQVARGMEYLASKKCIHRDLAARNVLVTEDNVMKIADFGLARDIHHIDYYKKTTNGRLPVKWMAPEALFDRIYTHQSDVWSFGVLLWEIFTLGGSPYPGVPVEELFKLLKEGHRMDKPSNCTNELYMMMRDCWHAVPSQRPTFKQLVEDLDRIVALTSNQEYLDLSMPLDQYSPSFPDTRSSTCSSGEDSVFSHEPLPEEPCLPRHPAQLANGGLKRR

| Kd (FGFR1) [nM] | Kd (FGFR2) [nM] | Kd (FGFR3) [nM] | Kd (FGFR4) [nM] | Kd (FGFR3 (V555M)) [nM] | IC50 [1] [nM] | IC50 [2] [nM] | IC50 [3] [nM] | SMILES |
| --- | --- | --- | --- | --- | --- | --- | --- | --- |
| 1 to 50 | 1 to 50 | 1 to 50 | 1 to 50 | 1 to 50 | 0.1 to 50 | 0.1 to 50 | 0.1 to 50 | C[C@@H](Oc1ccc2[nH]nc(-c3cnc(N4CC(C)(CN5CCCC5)C4)c(F)c3)c2c1)c1c(Cl)cncc1Cl [Example 110, (R)-5-(1-(3,5-dichloropyridin-4-yl)ethoxy)-3-(5-fluoro-6-(3-methyl-3-(pyrrolidin-1-ylmethyl)azetidin-1-yl)pyridin-3-yl)-1H-indazole] |
| 1 to 50 | 1 to 50 | 1 to 50 | 1 to 50 | 1 to 50 | 0.1 to 50 | 50 to 200 | 0.1 to 50 | C[C@@H](Oc1ccc2[nH]nc(-c3cnc(N4CC(C)(N5CC(C)(C)C5)C4)c(F)c3)c2c1)c1c(Cl)cncc1Cl [Example 111, (R)-5-(1-(3,5-dichloropyridin-4-yl)ethoxy)-3-(5-fluoro-6-(3,3,3′-trimethyl-[1,3′-biazetidin]-1′-yl)pyridin-3-yl)-1H-indazole] |
| 1 to 50 | 1 to 50 | 1 to 50 | 1 to 50 | 1 to 50 | 0.1 to 50 | 0.1 to 50 | 0.1 to 50 | C[C@H](O)CNC1(C)CN(c2ncc(-c3n[nH]c4ccc(O[C@H](C)c5c(Cl)cncc5Cl)cc34)cc2F)C1 [Example 112, (S)-1-((1-(5-(5-((R)-1-(3,5-dichloropyridin-4-yl)ethoxy)-1H-indazol-3-yl)-3-fluoropyridin-2-yl)-3-methylazetidin-3-yl)amino)propan-2-ol] |
| 1 to 50 | 1 to 50 | 1 to 50 | 1 to 50 | 1 to 50 | 0.1 to 50 | 50 to 200 | 0.1 to 50 | C[C@@H](Oc1ccc2[nH]nc(-c3cnc(N4CC(C)(NCC(C)(C)O)C4)c(F)c3)c2c1)c1c(Cl)cncc1Cl [Example 113, (R)-1-((1-(5-(5-(1-(3,5-dichloropyridin-4-yl)ethoxy)-1H-indazol-3-yl)-3-fluoropyridin-2-yl)-3-methylazetidin-3-yl)amino)-2-methylpropan-2-ol] |
| 1 to 50 | 1 to 50 | 1 to 50 | 1 to 50 | 1 to 50 | 0.1 to 50 | 0.1 to 50 | 0.1 to 50 | C[C@@H](Oc1ccc2[nH]nc(-c3cnc(N4CC(C)(NCCO)C4)c(F)c3)c2c1)c1c(Cl)cncc1Cl [Example 114, (R)-2-((1-(5-(5-(1-(3,5-dichloropyridin-4-yl)ethoxy)-1H-indazol-3-yl)-3-fluoropyridin-2-yl)-3-methylazetidin-3-yl)amino)ethan-1-ol] |
| 1 to 50 | 1 to 50 | 1 to 50 | 1 to 50 | 1 to 50 | 0.1 to 50 | 0.1 to 50 | 0.1 to 50 | C[C@@H](Oc1ccc2[nH]nc(-c3ccc(N4CC(C)(NCC(C)(C)O)C4)nc3)c2c1)c1c(Cl)cncc1Cl [Example 115, (R)-1-((1-(5-(5-(1-(3,5-dichloropyridin-4-yl)ethoxy)-1H-indazol-3-yl)pyridin-2-yl)-3-methylazetidin-3-yl)amino)-2-methylpropan-2-ol] |
| 1 to 50 | 1 to 50 | 1 to 50 | 1 to 50 | 1 to 50 | 0.1 to 50 | 0.1 to 50 | 0.1 to 50 | C[C@@H](Oc1ccc2[nH]nc(-c3ccc(N4CC(C)(N5CCC5)C4)nc3)c2c1)c1c(Cl)cncc1Cl [Example 116, 3-[6-[3-(azetidin-1-yl)-3-methyl-azetidin-1-yl]-3-pyridyl]-5-[(1R)-1-(3,5-dichloro-4-pyridyl)ethoxy]-1H-indazole] |
| 1 to 50 | 1 to 50 | 1 to 50 | 1 to 50 | 1 to 50 | 50 to 200 | 50 to 200 | 0.1 to 50 | CC(C)NC1(C)CN(c2ncc(-c3n[nH]c4ccc(O[C@H](C)c5c(Cl)cncc5Cl)cc34)cc2F)C1 [Example 117, (R)-1-(5-(5-(1-(3,5-dichloropyridin-4-yl)ethoxy)-1H-indazol-3-yl)-3-fluoropyridin-2-yl)-N-isopropyl-3-methylazetidin-3-amine] |
| 1 to 50 | 1 to 50 | 1 to 50 | 1 to 50 | 1 to 50 | 0.1 to 50 | 0.1 to 50 | 0.1 to 50 | C[C@@H](Oc1ccc2[nH]nc(-c3cnc(N4CC(C)(NCC5(O)CC5)C4)c(F)c3)c2c1)c1c(Cl)cncc1Cl [Example 118, (R)-1-(((1-(5-(5-(1-(3,5-dichloropyridin-4-yl)ethoxy)-1H-indazol-3-yl)-3-fluoropyridin-2-yl)-3-methylazetidin-3-yl)amino)methyl)cyclo-propan-1-ol] |
| 1 to 50 | 1 to 50 | 1 to 50 | 1 to 50 | 1 to 50 | 0.1 to 50 | 0.1 to 50 | 0.1 to 50 | COc1cc2[nH]nc(-c3cnc(N4CC(C)(NCC5(O)CC5)C4)c(F)c3)c2cc1O[C@H](C)c1c(Cl)cncc1Cl [Example 119, (R)-1-(((1-(5-(5-(1-(3,5-dichloropyridin-4-yl)ethoxy)-6-methoxy-1H-indazol-3-yl)-3-fluoropyridin-2-yl)-3-methylazetidin-3-yl)amino)methyl)cyclo-propan-1-ol] |
| 1 to 50 | 1 to 50 | 1 to 50 | 1 to 50 | 1 to 50 | 0.1 to 50 | 0.1 to 50 | 0.1 to 50 | COc1cc2[nH]nc(-c3cnc(N4CC(C)(NCC5CC5)C4)c(F)c3)c2cc1O[C@H](C)c1c(Cl)cncc1Cl [Example 126, (R)-N-(cyclopropylmethyl)-1-(5-(5-(1-(3,5-dichloropyridin-4-yl)ethoxy)-6-methoxy-1H-indazol-3-yl)-3-fluoropyridin-2-yl)-3-methylazetidin-3-amine] |
| 1 to 50 | 1 to 50 | 1 to 50 | 1 to 50 | 1 to 50 | 50 to 200 | 50 to 200 | 0.1 to 50 | CC(C)NC1(C)CN(c2ncc(-c3n[nH]c4cc(F)c(O[C@H](C)c5c(Cl)cncc5Cl)cc34)cc2F)C1 [Example 127, (R)-1-(5-(5-(1-(3,5-dichloropyridin-4-yl)ethoxy)-6-fluoro-1H-indazol-3-yl)-3-fluoropyridin-2-yl)-N-isopropyl-3-methylazetidin-3-amine] |
| 1 to 50 | 1 to 50 | 1 to 50 | 1 to 50 | 1 to 50 | 0.1 to 50 | 0.1 to 50 | 0.1 to 50 | C[C@@H](Oc1cc2c(-c3cnc(N4CC(C)(N5CCCC5)C4)c(F)c3)n[nH]c2cc1F)c1c(Cl)cncc1Cl [Example 128, (R)-5-(1-(3,5-dichloropyridin-4-yl)ethoxy)-6-fluoro-3-(5-fluoro-6-(3-methyl-3-(pyrrolidin-1-yl)azetidin-1-yl)pyridin-3-yl)-1H-indazole] |
| 1 to 50 | 1 to 50 | 1 to 50 | 1 to 50 | 1 to 50 | 50 to 200 | 50 to 200 | 0.1 to 50 | C[C@@H](Oc1cc2c(-c3cnc(N4CC(C)(NCC5CC5)C4)c(F)c3)n[nH]c2cc1F)c1c(Cl)cncc1Cl [Example 132, N-(cyclopropylmethyl)-1-[5-[5-[(1R)-1-(3,5-dichloro-4-pyridyl)ethoxy]-6-fluoro-1H-indazol-3-yl]-3-fluoro-2-pyridyl]-3-methyl-azetidin-3-amine] |
| 1 to 50 | 1 to 50 | 1 to 50 | 1 to 50 | 1 to 50 | 0.1 to 50 | 0.1 to 50 | 0.1 to 50 | CCNC1(C)CN(c2ncc(-c3n[nH]c4ccc(O[C@H](C)c5c(Cl)cncc5Cl)cc34)cc2F)C1 [Example 149, 1-[5-[5-[(1R)-1-(3,5-dichloro-4-pyridyl)ethoxy]-1H-indazol-3-yl]-3-fluoro-2-pyridyl]-N-ethyl-3-methyl-azetidin-3-amine] |
| 1 to 50 | 1 to 50 | 1 to 50 | 1 to 50 | 1 to 50 | 50 to 200 | 50 to 200 | 0.1 to 50 | C[C@@H](Oc1ccc2[nH]nc(-c3cnc(N4CC(C)(O)C4)c(F)c3)c2c1)c1c(Cl)cncc1Cl [Example 154, 1-[5-[5-[(1R)-1-(3,5-dichloro-4-pyridyl)ethoxy]-1H-indazol-3-yl]-3-fluoro-2-pyridyl]-3-methyl-azetidin-3-ol] |
